Our source for the TGI and GI50 values is PubChem BioAssay (NCI).

Common to all, as to assay: growth of human tumour cells (NCI), 48 h
Assay [1] has as its system UACC-257 melanoma.
The test system of assay [2] is SR leukemia.
Assay [3] relates to DMS 273 small cell lung.
For assay [4], the system named is KM20L2 colon.
In assay [5] the test system is HOP-62 NSCLC.
Assay [6] deals with M14 melanoma.
The test system of assay [7] is LXFL 529 NSCLC.

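Method: 48-hour compound exposure of cells in 96-well plates, five concentrations, linear interpolation of endpoints. Abbreviation: GI50, concentration required for 50% inhibition of growth. TGI: concentration producing complete growth inhibition.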 Some results are limits rather than exact numbers.

Consider `Cc1cc(Cl)ccc1NC(=O)C(=O)Cc1nc2ccc(C(=O)c3ccccc3)cc2[nH]c1=O`, for which the TGI in assay [1], in assay [2], in assay [3], in assay [4], in assay [5] and in assay [6] was over 100 µM each time. The compound further displayed a TGI in assay [7] of over 100 µM.

Consider `C/C(=N/N(C=O)C[n+]1ccccc1)C(CN(CC(C)C)CC(C)C)C(=O)Nc1ccc(C)cc1C` (centres undefined), for which the TGI in assay [1], in assay [2], in assay [4], in assay [5] and in assay [6] was over 100 µM in each case.

With `Nc1nc2c(ncn2Cc2ccccc2CCO)c(=O)[nH]1`, the TGI in assay [3], in assay [4], in assay [5], in assay [6] and in assay [7] was over 100 µM throughout.

As for `COc1cc2nncc(Sc3cnnc4ccccc34)c2cc1OC`, the TGI in assay [1] is 68 µM; in assay [3] it was 81.7 µM; in assay [4], 68.3 µM; in assay [5], over 100 µM; in assay [6], over 100 µM; in assay [7] it was over 100 µM.

As for `CC12CC3(C)CC(C)(C1)CC(N=[N+]=[N-])(C2)C3`, the TGI in assay [1], in assay [2], in assay [3], in assay [5], in assay [6] and in assay [7] was over 100 µM throughout.

In the case of `COc1ccc(C2C(Cl)C(=O)N2n2cnc3ccccc3c2=O)cc1OC` (centres undefined), the TGI in assay [1], in assay [2], in assay [3], in assay [4], in assay [5] and in assay [6] was over 100 µM in each case. Moreover, the TGI in assay [7] is over 100 µM.

On to `C=C(C)C1CC2C(C)=C(OC(C)=O)C1n1c(=O)c3cc4ccccc4cc3c(=O)n12` (centres undefined), for which the TGI was over 100 µM in assay [1]; over 93 µM in assay [2]; over 100 µM in assay [3]; over 100 µM in assay [4]; over 100 µM in assay [5]; over 100 µM in assay [6]. In addition, the TGI in assay [7] was over 100 µM.

In the case of `CSc1nc2c(c(O)c(C)c(=O)n2C2OC(COC(C)=O)C(OC(C)=O)C(OC(C)=O)C2OC(C)=O)c(=O)n1C` (centres undefined), the TGI in assay [1], in assay [3], in assay [4], in assay [5], in assay [6] and in assay [7] was over 100 µM in each case.

Take `CC1(C)C(=O)C(O)=CC2C1=CCC1C2(C)C(=O)CC2(C)C(C(C)(O)C(=O)CC(O)C(C)(C)O)C(O)CC12C` (centres undefined): the TGI stood at 30.2 µM in assay [1]; 25.3 µM in assay [2]; 9.61 µM in assay [3]; 42.4 µM in assay [4]; 11.5 µM in assay [5]; 23.8 µM in assay [6]. The same compound had a TGI in assay [7] of 17.4 µM.

Consider `Cc1cc([N+](=O)[O-])c(C)c2c1[nH]c1ccc(/C(CCC3CCCC3)=N\N)cc12`, for which the TGI in assay [1] is 42.7 µM; in assay [2], 55.9 µM; in assay [3], 36.3 µM; in assay [5], 36.7 µM; in assay [6], 39.5 µM.

Consider `CC[O-].CC[O-].O=C1C(=C([O-])c2ccccc2)C(=O)c2ccccc21.O=C1C(=C([O-])c2ccccc2)C(=O)c2ccccc21.[Ti+4]`, for which the GI50 in assay [1] was over 100 µM; in assay [3], 54.8 µM; in assay [4], over 100 µM; in assay [5], over 100 µM; in assay [6] it was over 100 µM. The TGI in assay [1], in assay [3], in assay [4], in assay [5] and in assay [6] was over 100 µM in each case.

Take `COc1ccc(C(C2=C(C)C(=O)c3ccccc3C2=O)c2ccc(C(C)C)cc(=O)c2O)cc1` (centres undefined): the TGI was 21.3 µM in assay [2]; 5.4 µM in assay [3]; 6.65 µM in assay [5]; 6.24 µM in assay [6]; over 100 µM in assay [7].

For `CC(C)N(C(=O)C12C3C4C1C1C2C3C41C(O)C(C)(C)C)C(C)C` (centres undefined), the TGI in assay [2], in assay [3], in assay [4], in assay [5], in assay [6] and in assay [7] was over 50 µM each time.

Turning to `O=c1nc(-c2ccccc2)c2c3c(cccn13)CCC2`, the TGI in assay [1], in assay [2], in assay [3], in assay [5], in assay [6] and in assay [7] was over 100 µM throughout.

Consider `Cc1cc(C)c2c(c1)CN1CN2Cc2cc(C)cc(C)c21`, for which the TGI in assay [2] was 39.3 µM; in assay [3] it was 37.2 µM; in assay [5] it was 53.2 µM; in assay [6], 51.8 µM; in assay [7], over 100 µM.

`Fc1cccc(Cl)c1C1SCc2nc3ccccc3n21` (centres undefined): the TGI was 72.7 µM in assay [1]; 54.4 µM in assay [2]; 57.9 µM in assay [3]; 49.7 µM in assay [4]; over 100 µM in assay [5]; over 100 µM in assay [6]. The same compound returned a TGI in assay [7] of over 100 µM.

`CC(C)N(C(C)C)[PH+]1O[PH+](N(C(C)C)C(C)C)O[PH+](N(C(C)C)C(C)C)O[PH+](N(C(C)C)C(C)C)O[PH+](N(C(C)C)C(C)C)O1.[C-]#[O+].[C-]#[O+].[C-]#[O+].[C-]#[O+].[C-]#[O+].[C-]#[O+].[C-]#[O+].[Cr].[Cr]` (centres undefined): the GI50 in assay [1], in assay [3], in assay [4], in assay [5], in assay [6] and in assay [7] was over 100 µM throughout. Further, the TGI in assay [1], in assay [3], in assay [4], in assay [5], in assay [6] and in assay [7] was over 100 µM in each case.

In the case of `Cc1cc(O)c2c(c1)C(O)(c1ccc3c(c1O)C(=O)c1c(O)cc(C)cc1C3(O)C1OC(CO)C(O)C(O)C1O)c1cccc(O)c1C2=O` (centres undefined), the TGI in assay [1] is 28.7 µM; in assay [2] it was 30.9 µM; in assay [3], 30.4 µM; in assay [4], 36 µM; in assay [5] it was 28.9 µM; in assay [6], 30 µM. Further, the TGI in assay [7] came out at 24.5 µM.
